Laboratory results taken from patent US20050112033A1, “Multi-well containers, systems, and methods of using the same” (IRM, LLC, priority 2003, published 2005).

How the values were obtained:
[1] = Equilibrium dialysis plasma protein binding in a multi-well container; assay type: in vitro ADME; conditions: human plasma vs buffer, 37° C. with gentle shaking, LC/MS detection
Experimental: This example illustrates equilibrium dialysis assays that were performed in a multi-well container of the invention to measure small molecule drug binding to plasma proteins. The assays included filling one well of a pair of wells that communicated via a chamber having a membrane disposed therein with human plasma and the other well of the pair with buffer. The assay included filling multiple pairs of wells in this manner. Each of the small molecules was dispensed into different wells containing plasma. The entire multi-well container was then heated at 37° C. with gentle shaking. […] Binding percentages were determined following detection using liquid chromatography/mass spectrometry.

[2] = literature value; cited from earlier work

Compound	Human plasma binding percentage obtained in a multi-well container of the invention [1] [%]	Plasma binding percentage stated in the literature [2] [%]
CN(C)CCCN1c2ccccc2CCc2ccccc21 [Imipramine]	95	95
Cc1c(O)cccc1C(=O)N[C@@H](CSc1ccccc1)[C@H](O)CN1C[C@H]2CCCC[C@H]2C[C@H]1C(=O)NC(C)(C)C [Nelfinavir]	>99	>98
CC(C)NCC(O)COc1cccc2ccccc12 (stereo not shown) [Propranolol]	91	93
Cn1c(=O)c2[nH]cnc2n(C)c1=O [Theophylline]		56
CCCCNC(=O)NS(=O)(=O)c1ccc(C)cc1 [Tolbutamide]		96
COc1cc(Cc2cnc(N)nc2N)cc(OC)c1OC [Trimethoprim]	65	44
